We go through 2 molecules from patent publication US10906920B2, “Heterocyclic compounds as immunomodulators” (Incyte Corporation, priority 2018, dated 2021).

Assay [1] concerns U2OS/PD-L1 cells and Jurkat-PD-1-SHP cells. The assay is described as follows: Src homology region 2 domain-containing phosphatase (SHP) assay. The assay is classed as cell-based. The following applies: Homo sapiens. Here is the method: Example B. Src Homology Region 2 Domain-Containing Phosphatase (SHP) Assay
U2OS/PD-L1 cells (DiscoveRx Corporation) were maintained in McCoy's 5A medium with addition of 10% FBS, 0.25 μg/ml Puromycin. After removing the culture media, the cell medium was replaced with assay medium (RPMI1640 medium with 1% FBS). The U2OS/PD-L1 cells were then added in 384-well black clear bottom assay plate (CELLCOAT® Tissue Culture Plates, Greiner Bio-One) at 5000 cells per well in 20 μL assay medium. Test compounds were prepared by serial dilution in DMSO and 125 nL compound were first transferred to the 384 REMP plate well (Thermofisher) by ECHO liquid handler (Labcyte) followed with addition of 27.5 μL assay medium. 5 μL/well compounds in the assay medium were transferred to the cell plate with 0.05% DMSO in the final assay at 0.25 Jurkat-PD-1-SHP cells (DiscoveRx Corporation) were cultured in RPMI1640 medium supplemented with 10% FBS, 250 μg/ml Hygromycin B, 500 μg/ml G418. After the replacement of culture media with assay medium, 5,000 Jurkat-PD-1-SHP cells in 20 μL were dispensed into each well. The assay plate was incubated at 37° C., 5% CO2 for 2 hours before 2.5 μL PathHunter reagent 1 (DiscoveRx Corporation) were added to each well. […] Chemiluminescent signal was recorded with TopCount reader (Perkin Elmer) after incubation at room temperature for 1 hour. […]

For assay [2], the system named is PD-L1 aAPC/CHO-K1 cells and Jurkat-PD-1-NFAT effector cells. The assay is described as follows: Nuclear factor of activated T-cells (NFAT) assay. Format: cell-based. The method, then: The culture media of PD-L1 aAPC/CHO-K1 cells were first replaced with assay medium (RPMI1640 medium with 1% FBS). […] The assay plate was incubated at 37° C., 5% CO2 for 24 hours. […] After 8 minutes incubation at room temperature, luminescence was read at with Pherastar microplate reader (BMG Labtech). The fold of induction (FOI) was calculated based on the ratio of luminescence normalized to the DMSO wells within each assay plate. The maximum percentage of induction was reported based on the ratio between the highest FOI of each compound and the maximum FOI of control compound within each assay plate. Wells with DMSO were served as the negative controls and wells containing control compound with the highest FOI were used as positive controls. EC50 determination was performed by fitting the curve of percent control activity versus the log of the compound concentration using the GraphPad Prism 6.0 software.

Turning to `Cn1c(C(=O)Nc2cccc(-c3cccc(NC(=O)c4nc5c(n4C)CCN(CCC46CCC(C(=O)O)(CC4)C6)C5)c3Cl)c2Cl)nc2c1CCN(CCCCC(=O)O)C2` [Example 63, 4-(2-(2-((3′-(5-(4-carboxybutyl)-1-methyl-4,5,6,7-tetrahydro-1H-imidazo[4,5-c]pyridine-2-carboxamido)-2,2′-dichloro-[1,1′-biphenyl]-3-yl)carbamoyl)-1-methyl-1,4,6,7-tetrahydro-5H-imidazo[4,5-c]pyridin-5-yl)ethyl)bicyclo[2.2.1]heptane-1-carboxylic acid], the 50% inhibitory concentration (IC50) in assay [1] was not above 10 nM.
In assay [2], `Cn1c(C(=O)Nc2cccc(-c3cccc(NC(=O)c4nc5c(n4C)CCN(CC(C)(C)C(=O)O)C5)c3Cl)c2Cl)nc2c1CCN(CCC13CCC(C(=O)O)(CC1)C3)C2` [Example 21, 4-(2-(2-((3′-(5-(2-carboxy-2-methylpropyl)-1-methyl-4,5,6,7-tetrahydro-1H-imidazo[4,5-c]pyridine-2-carboxamido)-2,2′-dichloro-[1,1′-biphenyl]-3-yl)carbamoyl)-1-methyl-1,4,6,7-tetrahydro-5H-imidazo[4,5-c]pyridin-5-yl)ethyl)bicyclo[2.2.1]heptane-1-carboxylic acid] showed an EC50 of 10 to 100 nM.
